This passage reports relative viability results from the supplement of paper PMC10307832.

What all share (experiment): relative viability (nuclei count vs DMSO), 5 days (fraction); higher = more cells survive
Compound in assay [1]: C#Cc1cccc(Nc2ncnc3cc(OCCOC)c(OCCOC)cc23)c1 [Erlotinib] + COc1cccc2cc(-c3nc([C@H]4CC[C@H](C(=O)O)CC4)n4ncnc(N)c34)[nH]c12 [OSI-027] (partner 0.5 µM)
In outline: (§1)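 The day after seeding in 1536-well plates, lung cancer cell lines were treated by pin tool with a single drug, or with a fixed anchor-drug dose together with five library-drug doses (not always all listed) in √10 steps. After 5 days, a combined fix-and-stain solution (final 0.05% Triton X-100, 1% formaldehyde, 1 ug/ml Hoechst) was added. Nuclei counted on 4× images gave relative viability as treated counts over vehicle counts, reported as the median of duplicate plates.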

Compound in assay [2]: C#Cc1cccc(Nc2ncnc3cc(OCCOC)c(OCCOC)cc23)c1 [Erlotinib] + C[C@]1(O)C[C@@H](c2nc(-c3ccc4ccc(-c5ccccc5)nc4c3)c3c(N)nccn32)C1 [Linsitinib] (partner 1 µM)
In outline:
as §1

Compound in assay [3]: C#Cc1cccc(Nc2ncnc3cc(OCCOC)c(OCCOC)cc23)c1 [Erlotinib] + Cc1cc(Nc2cc(N3CCN(C)CC3)nc(Sc3ccc(NC(=O)C4CC4)cc3)n2)n[nH]1 [Tozasertib] (partner 0.1 µM)
The method in brief:
as §1

Compound in assay [4]: O=C(Nc1c[nH]nc1-c1nc2ccc(CN3CCOCC3)cc2[nH]1)NC1CC1 [AT9283] + Cc1nc(NC(=O)N2CCC[C@H]2C(N)=O)sc1-c1ccnc(C(C)(C)C(F)(F)F)c1 [Alpelisib] (partner 2 µM)
The method in brief: as §1

Compound in assay [5]: O=C(Nc1c[nH]nc1-c1nc2ccc(CN3CCOCC3)cc2[nH]1)NC1CC1 [AT9283] + NC(=O)Nc1cc(-c2cccc(F)c2)sc1C(=O)N[C@H]1CCCNC1 [AZD7762] (partner 0.2 µM)
The method in brief: as §1

In the case of NCI-H441, the relative viability in assay [1] (first compound 0.02 µM) amounted to 0.603; in assay [1] (first compound 0.6325 µM), 0.535; in assay [1] (first compound 2 µM) it was 0.355; in assay [2] (first compound 0.02 µM), 0.686; in assay [2] (first compound 0.2 µM) it was 0.746; in assay [2] (first compound 0.6325 µM), 0.569. Further, the relative viability in assay [2] (first compound 2 µM) was determined as 0.326; in assay [3] (first compound 0.02 µM), 0.631; in assay [3] (first compound 0.2 µM) it was 0.717; in assay [3] (first compound 0.6325 µM), 0.574; in assay [3] (first compound 2 µM), 0.473; in assay [4] (first compound 0.003 µM) it was 0.717. The relative viability is 0.641 in assay [4] (first compound 0.03 µM); 0.235 in assay [4] (first compound 0.09487 µM); 0.198 in assay [4] (first compound 0.3 µM); 1.06 in assay [5] (first compound 0.003 µM); 1.1 in assay [5] (first compound 0.03 µM); 0.894 in assay [5] (first compound 0.09487 µM). For the same cell line, the relative viability in assay [5] (first compound 0.3 µM) was found to be 0.633.
